What all share (type): cell-based
In test [1] the target is T1, human GPR40 (Homo sapiens, UniProt O14842).
T1 construct: expressed in transfected cells
In words: GPR40 calcium flux assay, human GPR40. Particulars: HEK293 cells stably expressing GPR40; table does not say human or rat. The procedure, abridged: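 Cells preincubated 1 h at 37° C. in HBSS, 20 mM HEPES, 0.1% BSA, then Fluo 8 calcium dye 30 min at 37° C. and 15 min at room temperature.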

Test [2] has as its target T2, Human GPR120 short form (Homo sapiens, UniProt Q5NUL3).
T2 construct: expressed in transfected cells
T2 sequence (Q5NUL3 1-361): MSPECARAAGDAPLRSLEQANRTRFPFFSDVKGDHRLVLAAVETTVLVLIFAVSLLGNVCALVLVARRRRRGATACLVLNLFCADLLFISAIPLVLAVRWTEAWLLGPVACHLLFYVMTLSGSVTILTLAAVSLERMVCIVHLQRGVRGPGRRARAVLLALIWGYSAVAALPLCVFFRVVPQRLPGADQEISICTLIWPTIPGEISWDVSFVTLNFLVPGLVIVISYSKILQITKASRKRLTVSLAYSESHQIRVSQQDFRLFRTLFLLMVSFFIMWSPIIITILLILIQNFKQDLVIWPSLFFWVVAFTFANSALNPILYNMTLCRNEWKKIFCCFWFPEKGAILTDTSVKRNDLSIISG
Description: Human GPR120 calcium flux assay, Procedure Calcium B (4200 cells/well). The procedure, abridged:
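Agonist EC50 came from a four-parameter fit of RFU (Fmax−Fmin) read over 300 s on FLIPR. Cells were HEK293 stably transfected with human GPR120 (NM_001195755.1) at 4200 per well, serum-starved 1 h and loaded with Fluo-4 NW dye with probenecid before ligand addition.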
(In general: Calcium flux is commonly read through the fluorescence of an indicator in the cells.)

The target in test [3] is T2, Human GPR120 short form. Description: Human GPR120 calcium flux assay, Procedure Calcium A (2500 cells/well). The procedure, abridged: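 HEK293 cells stably expressing human GPR120 short isoform (NM_001195755.1), 2500 cells/well, serum-starved 1 h at 37 °C and loaded with Fluo-4 NW plus probenecid. FLIPR fluorescence read for 300 s after compound addition; response = Fmax−Fmin. EC50 from four-parameter concentration–response fit.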

T1 sequence (O14842 whole entry): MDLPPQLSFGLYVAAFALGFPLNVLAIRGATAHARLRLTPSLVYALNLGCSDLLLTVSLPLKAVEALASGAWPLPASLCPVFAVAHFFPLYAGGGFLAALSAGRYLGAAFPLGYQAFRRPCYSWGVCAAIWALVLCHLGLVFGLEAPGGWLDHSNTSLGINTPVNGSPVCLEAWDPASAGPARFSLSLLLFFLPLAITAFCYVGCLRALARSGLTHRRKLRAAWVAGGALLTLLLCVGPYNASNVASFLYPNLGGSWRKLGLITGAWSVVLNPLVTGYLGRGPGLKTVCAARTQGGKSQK

Regarding `Cc1c(CCC(=O)O)ccc(OCC2=C(c3ccc(F)cc3)CCC2)c1C` [Compound 4, 3-[4-[[2-(4-fluorophenyl)cyclopenten-1-yl]methoxy]-2,3-dimethyl-phenyl]Propanoic Acid], the values for the EC50 in test [1], in test [2] and in test [3] were greater than 5000 nM, 44 nM and 294 nM, respectively.

Consider `Cc1c(CCC(=O)O)ccc(OCC2=C(c3ccc(Cl)cc3)CCC2)c1C` [Compound 15, 3-(4-((2-(4-chlorophenyl)cyclopent-1-en-1-yl)methoxy)-2,3-dimethylphenyl)Propanoic Acid], for which the EC50 (in general, the concentration giving half of the maximal effect) in test [1] was greater than 5000 nM; in test [2], 70 nM; in test [3] it was 206 nM.

In the case of `CCc1ccc(C2=C(COc3c(F)cc(CCC(=O)O)cc3F)CCC2)cc1` [Compound 16, 3-(4-((2-(4-ethylphenyl)cyclopent-1-en-1-yl)methoxy)-3,5-difluorophenyl)Propanoic Acid], the EC50 in test [1] was greater than 5000 nM; in test [2], 49 nM; in test [3], 198 nM.

`Cc1c(CCC(=O)O)ccc(OCC2=C(c3ccc(OC(F)(F)F)cc3)CCC2)c1C` [Compound 20, 3-(2,3-dimethyl-4-((2-(4-(trifluoromethoxy)phenyl)cyclopent-1-en-1-yl)methoxy)phenyl)Propanoic Acid]: the EC50 in test [1] is greater than 5000 nM; in test [3] it was greater than 20000 nM.

For the molecule `Cc1c(CCC(=O)O)ccc(OCC2=C(c3ccccc3)CCC2)c1C` [Compound 23, 3-(2,3-dimethyl-4-((2-phenylcyclopent-1-en-1-yl)methoxy)phenyl)Propanoic Acid], the EC50 in test [1] was greater than 5000 nM; in test [2], 114 nM; in test [3], 301 nM.

With `CCc1ccc(C2=C(COc3ccc(CCC(=O)O)c(F)c3F)CCC2)cc1` [Compound 25, 3-(4-((2-(4-ethylphenyl)cyclopent-1-en-1-yl)methoxy)-2,3-difluorophenyl)Propanoic Acid], the EC50 in test [1] was greater than 5000 nM; in test [3], 129 nM.

`CCc1ccc(C2=C(COc3ccc(CCC(=O)O)c(C)c3C)CCC2)cc1` [Compound 27, 3-(4-((2-(4-ethylphenyl)cyclopent-1-en-1-yl)methoxy)-2,3-dimethylphenyl)Propanoic Acid]: the EC50 was greater than 5000 nM in test [1], 58 nM in test [2] and 256 nM in test [3].

As for `O=C(O)CCc1ccc(OCC2=C(c3ccc(Cl)cc3)CCC2)cc1F` [Compound 47, 3-[4-[[2-(4-chlorophenyl)cyclopenten-1-yl]methoxy]-2-fluoro-phenyl]Propanoic Acid], the results for the EC50 in test [1], in test [2] and in test [3] were 932 nM, 103 nM and 582 nM, respectively.

As to `Cc1ccc(C2=C(COc3ccc(CCC(=O)O)c(C)c3C)CCC2)cc1` [Compound 52, 3-[2,3-dimethyl-4-[[2-(p-tolyl)cyclopenten-1-yl]methoxy]phenyl]Propanoic Acid], the EC50 in test [1] is greater than 10000 nM; in test [2], 24 nM; in test [3], 173 nM.

With `Cc1c(CCC(=O)O)ccc(OCC2=C(c3cccc(Cl)c3)CCC2)c1C` [Compound 58, 3-[4-[[2-(3-chlorophenyl)cyclopenten-1-yl]methoxy]-2,3-dimethyl-phenyl]Propanoic Acid], the results for the EC50 in test [1], in test [2] and in test [3] were greater than 10000 nM, 159 nM and 546 nM, respectively.

As to `O=C(O)CCc1cc(F)c(OCC2=C(c3ccc(Cl)cc3)CCC2)c(F)c1` [Compound 60, 3-[4-[[2-(4-chlorophenyl)cyclopenten-1-yl]methoxy]-3,5-difluoro-phenyl]Propanoic Acid], the EC50 was greater than 5000 nM in test [1], 103 nM in test [2] and 550 nM in test [3].

`Cc1cc(CCC(=O)O)ccc1OCC1=C(c2ccc(Cl)cc2)CCC1` [Compound 62, 3-[4-[[2-(4-chlorophenyl)cyclopenten-1-yl]methoxy]-3-methyl-phenyl]Propanoic Acid]: the EC50 is greater than 5000 nM in test [1], 27 nM in test [2] and 136 nM in test [3].

Turning to `COc1cc(F)cc(C2=C(COc3ccc(CCC(=O)O)c(C)c3C)CCC2)c1` [Compound 65, 3-[4-[[2-(3-fluoro-5-methoxy-phenyl)cyclopenten-1-yl]methoxy]-2,3-dimethyl-phenyl]Propanoic Acid], the EC50 is greater than 5000 nM in test [1], 614 nM in test [2] and 2490 nM in test [3].

As to `Cc1c(CCC(=O)O)ccc(OCC2=C(c3ccc(Cl)c(Cl)c3)CCC2)c1C` [Compound 66, 3-[4-[[2-(3,4-dichlorophenyl)cyclopenten-1-yl]methoxy]-2,3-dimethyl-phenyl]Propanoic Acid], the EC50 was greater than 5000 nM in test [1], 205 nM in test [2] and 658 nM in test [3].

Consider `O=C(O)CCc1ccc(OCC2=C(c3ccc(Cl)cc3)CCC2)c(F)c1F` [Compound 70, 3-[4-[[2-(4-chlorophenyl)cyclopenten-1-yl]methoxy]-2,3-difluoro-phenyl]Propanoic Acid], for which the EC50 was greater than 5000 nM in test [1], 23 nM in test [2] and 344 nM in test [3].

As for `Cc1ccc(C2=C(COc3ccc(CCC(=O)O)c(F)c3F)CCC2)c(C)c1` [Compound 72, 3-(4-((2-(2,4-dimethylphenyl)cyclopent-1-en-1-yl)methoxy)-2,3-difluorophenyl)Propanoic Acid], the results for the EC50 in test [1], in test [2] and in test [3] were greater than 5000 nM, 245 nM and 658 nM, respectively.

With `Cc1c(CCC(=O)O)ccc(OCC2=C(c3ccccc3Cl)CCC2)c1C` [Compound 76, 3-[4-[[2-(2-chlorophenyl)cyclopenten-1-yl]methoxy]-2,3-dimethyl-phenyl]Propanoic Acid], the EC50 in test [1] is greater than 10000 nM; in test [2], 136 nM; in test [3], 542 nM.

In the case of `Cc1c(CCC(=O)O)ccc(OCC2=C(c3cccs3)CCC2)c1C` [Compound 77, 3-[2,3-dimethyl-4-[[2-(2-thienyl)cyclopenten-1-yl]methoxy]phenyl]Propanoic Acid], the EC50 in test [1] is greater than 10000 nM; in test [2], 122 nM; in test [3] it was 508 nM.

As to `Cc1ccc(C2=C(COc3ccc(CCC(=O)O)c(F)c3F)CCC2)cc1F` [Compound 78, 3-(2,3-difluoro-4-((2-(3-fluoro-4-methylphenyl)cyclopent-1-en-1-yl)methoxy)phenyl)Propanoic Acid], the EC50 in test [1] was greater than 5000 nM; in test [2], 34 nM; in test [3], 94 nM.

For `Cc1c(CCC(=O)O)ccc(OCC2=C(c3nccs3)CCC2)c1C` [Compound 79, 3-[2,3-dimethyl-4-[(2-thiazol-2-ylcyclopenten-1-yl)methoxy]phenyl]Propanoic Acid], the EC50 was greater than 5000 nM in test [1], 192 nM in test [2] and 760 nM in test [3].

On to `Cc1ccc(C2=C(COc3ccc(CCC(=O)O)c(C)c3C)CCC2)cc1F` [Compound 80, 3-(4-((2-(3-fluoro-4-methylphenyl)cyclopent-1-en-1-yl)methoxy)-2,3-dimethylphenyl)Propanoic Acid], for which the EC50 in test [1] is greater than 5000 nM; in test [2] it was 19 nM; in test [3], 81 nM.

In the case of `Cc1ccc(C2=C(COc3ccc(CCC(=O)O)c(C)c3C)CCC2)c(C)c1` [Compound 82], the EC50 in test [1] is greater than 5000 nM; in test [2] it was 242 nM; in test [3], 372 nM.

With `Cc1ccc(C2=C(COc3ccc(CCC(=O)O)c(F)c3F)CCC2)cc1C` [Compound 83, 3-(4-((2-(3,4-dimethylphenyl)cyclopent-1-en-1-yl)methoxy)-2,3-difluorophenyl)Propanoic Acid], the figures for the EC50 in test [1], in test [2] and in test [3] were greater than 5000 nM, 143 nM and 590 nM, respectively.

Turning to `Cc1ccc(C2=C(COc3c(F)cc(CCC(=O)O)cc3F)CCC2)cc1C` [Compound 84, 3-(4-((2-(3,4-dimethylphenyl)cyclopent-1-en-1-yl)methoxy)-3,5-difluorophenyl)Propanoic Acid], the EC50 in test [1] was greater than 5000 nM; in test [2], 290 nM; in test [3], 1740 nM.

Take `Cc1ccc(C2=C(COc3ccc(CCC(=O)O)c(C)c3C)CCC2)cn1` [Compound 85, 3-(2,3-dimethyl-4-((2-(6-methylpyridin-3-yl)cyclopent-1-en-1-yl)methoxy)phenyl)Propanoic Acid]: the EC50 in test [1] is greater than 5000 nM; in test [2] it was 234 nM; in test [3] it was 605 nM.

With `Cc1c(CCC(=O)O)ccc(OCC2=C(c3cncs3)CCC2)c1C` [Compound 88, 3-[2,3-dimethyl-4-[(2-thiazol-5-ylcyclopenten-1-yl)methoxy]phenyl]Propanoic Acid], the concentration for a half-maximal effect (EC50) in test [1] was greater than 5000 nM; in test [2], 233 nM; in test [3], 461 nM.

Consider `Cc1c(CCC(=O)O)ccc(OCC2=C(c3ccc(Cl)cc3)CC(F)(F)C2)c1C` [Compound 137, 3-[4-[[2-(4-chlorophenyl)-4,4-difluoro-cyclopenten-1-yl]methoxy]-2,3-dimethyl-phenyl]Propanoic Acid], for which the EC50 in test [1] is greater than 5000 nM; in test [2] it was 65 nM.

The values above are taken from patent US11230526B1, “Cylcoalkenyl derivatives useful as agonists of the GPR120 and/or GPR40 receptors” (Janssen Pharmaceutica NV, priority 2018, dated 2022).
